Laboratory results reported in PubChem BioAssay (NCI).
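48-hour exposure; five concentrations; linearly interpolated endpoints. TGI is the concentration that stops growth completely.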

How the values were obtained:
Experiment in all cases: NCI-60 cell line screen, 48 h
CCRF-CEM leukemia = test system: CCRF-CEM leukemia
MCF7 breast = test system: MCF7 breast
MDA-MB-435 = test system: MDA-MB-435
MDA-N = test system: MDA-N
NCI-H522 lung = test system: NCI-H522 lung
NCI/ADR-RES ovarian = test system: NCI/ADR-RES ovarian
PC-3 prostate = test system: PC-3 prostate
SF-539 CNS = test system: SF-539 CNS
T-47D breast = test system: T-47D breast
MALME-3M melanoma = test system: MALME-3M melanoma

Compound	TGI (CCRF-CEM leukemia) [µM]	TGI (MCF7 breast) [µM]	TGI (MDA-MB-435) [µM]	TGI (MDA-N) [µM]	TGI (NCI-H522 lung) [µM]	TGI (NCI/ADR-RES ovarian) [µM]	TGI (PC-3 prostate) [µM]	TGI (SF-539 CNS) [µM]	TGI (T-47D breast) [µM]	TGI (MALME-3M melanoma) [µM]
COc1ccccc1C1c2cc3c(cc2OC(N2CCOCC2)C1C)OCO3 (configuration not stated)	34.7	81.5	24.9	24.8	30.1	61.6	71.9	32	78.3	
Cc1ccc(C(=O)N/N=C(\N=Nc2ccc(C(=O)O)cc2)c2ccc(N(CCC#N)CCC#N)cc2C)cc1	> 100	> 100	> 100	> 100		> 100	> 100	> 100	> 100	
O=C(Nc1ccc(Cl)cc1)c1cc(S(=O)(=O)Nc2nnc3c(Cl)cc(C(F)(F)F)cn23)c(S)cc1Cl	> 100	> 100	> 100		> 100	> 100	> 100	> 100	> 100	> 100
CC(=O)Nc1cccc(N=NN(C)C)c1	> 100	> 100			> 100	> 100		> 100		> 100
Cc1ccc(N(C)S(=O)(=O)c2ccccc2[N+](=O)[O-])cc1		> 100	> 100	> 100	94.6	> 100	> 100	> 100	> 100	> 100
CC(Cl)CC(=O)OCC1CCCN2CCCCC12 (configuration not stated)	> 100	> 100	> 100	> 100		> 100	> 100	> 100	> 100	> 100
CNc1nc(C(N)=O)c(N)s1	> 100		> 100	> 100	> 100	> 100	> 100	> 100	> 100	> 100
CCOC(=O)c1cccc(NC(=O)CI)c1		1.33	0.797	0.472	0.347	1.96	2.39	1.31		2.98
CCOc1ccc(N/C(=C(/C(Cl)=C(/Cl)NC(C)(C)C)[N+](=O)[O-])n2nnc3ccccc32)cc1	> 100	65.1	33.6			> 100	83.5	57.6	32	33.3
O=CN1CCN(C(=O)c2ccc(Cl)c(Cl)c2)C1=S	24.2	25	31.8		28.7	> 100	31.9	37	58	39.1
COc1cccc(C2c3cc4c(cc3OC(Nc3ccccc3)C2C)OCO4)c1OC (configuration not stated)	27.6	> 100	> 100	> 100	95		> 100	> 100	> 100	> 100
COc1ccc(-c2oc3c(OC)c(OC)cc(O)c3c(=O)c2OC)cc1	> 100	> 100	> 100	> 100	> 100	> 100		72.5	> 100	> 100
